pIC50: −log10 of the molar value. Activity calls are given as the source filed them. No cut-off for these calls is given here.
Tests used:
[1] = biological target: Hepatocyte growth factor receptor (Homo sapiens, UniProt P08581); assay: Inhibition of human wild type MET using Poly(Ala,Glu,Lys,Tyr)6:2:5:1 as substrate preincubated for 2 hrs followed by ATP addition and measured every 2 mins for […] by spectrophotometric analysis
[2] = biological target: cGMP-dependent protein kinase 1 (Homo sapiens, UniProt Q13976); assay: Inhibition of human wild type PKG1 alpha using 3xChocktide-PKC(19to 31) as substrate preincubated for 2 hrs followed by ATP addition and measured every 2 mins for […] by spectrophotometric analysis
[3] = biological target: Ribosomal protein S6 kinase alpha-4 (Homo sapiens, UniProt O75676); assay: Inhibition of human wild type MSK2 using RBER-CHKtide as substrate preincubated for 2 hrs followed by ATP addition and measured every 2 mins for […] by spectrophotometric analysis
[4] = biological target: Serine/threonine-protein kinase MARK1 (Homo sapiens, UniProt Q9P0L2); assay: Inhibition of human wild type MARK1 using RBER-CHKtide as substrate preincubated for 2 hrs followed by ATP addition and measured every 2 mins for […] by spectrophotometric analysis
Sequence of Serine/threonine-protein kinase MARK1 (Q9P0L2 whole entry): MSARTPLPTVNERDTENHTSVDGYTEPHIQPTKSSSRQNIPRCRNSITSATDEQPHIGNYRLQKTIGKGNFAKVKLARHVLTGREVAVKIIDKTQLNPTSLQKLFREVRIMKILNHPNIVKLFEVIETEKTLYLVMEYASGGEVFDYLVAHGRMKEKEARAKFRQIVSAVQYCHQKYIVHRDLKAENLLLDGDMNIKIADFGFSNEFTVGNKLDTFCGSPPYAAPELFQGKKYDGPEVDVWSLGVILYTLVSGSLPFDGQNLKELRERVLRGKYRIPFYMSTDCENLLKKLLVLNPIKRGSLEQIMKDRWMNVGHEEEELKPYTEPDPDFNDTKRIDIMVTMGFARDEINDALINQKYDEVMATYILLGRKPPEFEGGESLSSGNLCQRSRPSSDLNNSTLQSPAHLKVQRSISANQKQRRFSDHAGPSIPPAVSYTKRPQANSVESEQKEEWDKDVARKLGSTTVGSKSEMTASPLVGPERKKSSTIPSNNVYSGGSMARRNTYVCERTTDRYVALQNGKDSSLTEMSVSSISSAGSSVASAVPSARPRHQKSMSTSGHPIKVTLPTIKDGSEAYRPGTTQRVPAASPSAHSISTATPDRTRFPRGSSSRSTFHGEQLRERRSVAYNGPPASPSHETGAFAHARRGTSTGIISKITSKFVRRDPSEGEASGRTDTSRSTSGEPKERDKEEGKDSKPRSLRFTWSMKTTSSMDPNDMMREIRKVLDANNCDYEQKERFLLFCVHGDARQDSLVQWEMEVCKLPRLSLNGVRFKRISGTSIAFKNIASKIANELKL

[5] = biological target: Ephrin type-B receptor 3 (Homo sapiens, UniProt P54753); assay: Inhibition of human wild type EPHB3 using PolyEY as substrate preincubated for 2 hrs followed by ATP addition and measured every 2 mins for […] by spectrophotometric analysis
[6] = biological target: Protein kinase C gamma type (Homo sapiens, UniProt P05129); assay: Inhibition of human wild type PKC gamma using 3xChocktide-PKC(19to 31) as substrate preincubated for 2 hrs followed by ATP addition and measured every 2 mins for […] by spectrophotometric analysis
[7] = biological target: Serine/threonine-protein kinase mTOR (Homo sapiens, UniProt P42345); assay: Inhibition of human wild type mTOR using Casein as substrate preincubated for 2 hrs followed by ATP addition and measured every 2 mins for […] by spectrophotometric analysis
[8] = biological target: Vascular endothelial growth factor receptor 1 (Homo sapiens, UniProt P17948); assay: Inhibition of human wild type FLT1 using PolyEY as substrate preincubated for 2 hrs followed by ATP addition and measured every 2 mins for […] by spectrophotometric analysis
Sequence of Vascular endothelial growth factor receptor 1 (P17948 whole entry): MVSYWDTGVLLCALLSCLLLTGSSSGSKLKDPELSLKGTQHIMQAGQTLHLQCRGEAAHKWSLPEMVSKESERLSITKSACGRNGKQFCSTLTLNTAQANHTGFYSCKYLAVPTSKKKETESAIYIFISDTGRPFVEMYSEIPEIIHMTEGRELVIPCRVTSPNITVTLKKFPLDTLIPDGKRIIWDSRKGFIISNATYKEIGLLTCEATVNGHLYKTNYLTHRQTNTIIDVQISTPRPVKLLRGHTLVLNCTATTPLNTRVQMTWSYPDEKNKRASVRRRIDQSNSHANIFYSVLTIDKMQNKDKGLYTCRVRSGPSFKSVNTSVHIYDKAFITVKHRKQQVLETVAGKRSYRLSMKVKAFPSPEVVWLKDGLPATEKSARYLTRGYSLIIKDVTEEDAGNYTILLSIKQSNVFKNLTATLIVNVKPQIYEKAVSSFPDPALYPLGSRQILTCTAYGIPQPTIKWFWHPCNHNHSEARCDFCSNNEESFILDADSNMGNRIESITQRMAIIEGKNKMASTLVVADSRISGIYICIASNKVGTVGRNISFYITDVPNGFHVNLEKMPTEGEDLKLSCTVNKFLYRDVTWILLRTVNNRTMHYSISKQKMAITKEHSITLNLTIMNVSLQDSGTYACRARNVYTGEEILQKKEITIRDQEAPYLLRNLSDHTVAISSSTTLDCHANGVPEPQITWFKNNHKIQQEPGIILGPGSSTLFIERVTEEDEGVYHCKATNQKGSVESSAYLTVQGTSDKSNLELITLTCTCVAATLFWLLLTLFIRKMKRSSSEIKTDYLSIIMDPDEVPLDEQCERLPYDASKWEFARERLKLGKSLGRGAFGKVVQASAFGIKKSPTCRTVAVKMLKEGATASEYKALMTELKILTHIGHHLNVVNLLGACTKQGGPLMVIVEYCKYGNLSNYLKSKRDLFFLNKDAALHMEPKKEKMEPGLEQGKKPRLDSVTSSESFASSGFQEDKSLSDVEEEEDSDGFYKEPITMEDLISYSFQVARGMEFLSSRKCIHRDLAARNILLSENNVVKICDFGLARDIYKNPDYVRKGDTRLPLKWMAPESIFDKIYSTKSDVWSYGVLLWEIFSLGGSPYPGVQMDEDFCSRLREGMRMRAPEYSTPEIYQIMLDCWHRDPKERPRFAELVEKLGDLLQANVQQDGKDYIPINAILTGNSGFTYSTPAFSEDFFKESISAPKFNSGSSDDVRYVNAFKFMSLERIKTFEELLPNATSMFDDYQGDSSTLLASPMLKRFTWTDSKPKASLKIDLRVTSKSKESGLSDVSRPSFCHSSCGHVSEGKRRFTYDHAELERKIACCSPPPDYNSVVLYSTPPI

[9] = test system: Tyrosine-protein kinase ABL1 (Homo sapiens), P00519 [T315I]; conditions: time 2.0 hrs
[10] = biological target: Dual specificity tyrosine-phosphorylation-regulated kinase 1A (Homo sapiens, UniProt Q13627); assay: Inhibition of human wild type DYRK1 using RBER-CHKtide as substrate preincubated for 2 hrs followed by ATP addition and measured every 2 mins for […] by spectrophotometric analysis
[11] = biological target: Homeodomain-interacting protein kinase 1 (Homo sapiens, UniProt Q86Z02); assay: Inhibition of human wild type HIPK1 using RBER-CHKtide as substrate preincubated for 2 hrs followed by ATP addition and measured every 2 mins for […] by spectrophotometric analysis
[12] = biological target: Tyrosine-protein kinase JAK1 (Homo sapiens, UniProt P23458); assay: Inhibition of human wild type JAK1 using RBER-IRStide as substrate preincubated for 2 hrs followed by ATP addition and measured every 2 mins for […] by spectrophotometric analysis
Sequence of Tyrosine-protein kinase JAK1 (P23458 whole entry): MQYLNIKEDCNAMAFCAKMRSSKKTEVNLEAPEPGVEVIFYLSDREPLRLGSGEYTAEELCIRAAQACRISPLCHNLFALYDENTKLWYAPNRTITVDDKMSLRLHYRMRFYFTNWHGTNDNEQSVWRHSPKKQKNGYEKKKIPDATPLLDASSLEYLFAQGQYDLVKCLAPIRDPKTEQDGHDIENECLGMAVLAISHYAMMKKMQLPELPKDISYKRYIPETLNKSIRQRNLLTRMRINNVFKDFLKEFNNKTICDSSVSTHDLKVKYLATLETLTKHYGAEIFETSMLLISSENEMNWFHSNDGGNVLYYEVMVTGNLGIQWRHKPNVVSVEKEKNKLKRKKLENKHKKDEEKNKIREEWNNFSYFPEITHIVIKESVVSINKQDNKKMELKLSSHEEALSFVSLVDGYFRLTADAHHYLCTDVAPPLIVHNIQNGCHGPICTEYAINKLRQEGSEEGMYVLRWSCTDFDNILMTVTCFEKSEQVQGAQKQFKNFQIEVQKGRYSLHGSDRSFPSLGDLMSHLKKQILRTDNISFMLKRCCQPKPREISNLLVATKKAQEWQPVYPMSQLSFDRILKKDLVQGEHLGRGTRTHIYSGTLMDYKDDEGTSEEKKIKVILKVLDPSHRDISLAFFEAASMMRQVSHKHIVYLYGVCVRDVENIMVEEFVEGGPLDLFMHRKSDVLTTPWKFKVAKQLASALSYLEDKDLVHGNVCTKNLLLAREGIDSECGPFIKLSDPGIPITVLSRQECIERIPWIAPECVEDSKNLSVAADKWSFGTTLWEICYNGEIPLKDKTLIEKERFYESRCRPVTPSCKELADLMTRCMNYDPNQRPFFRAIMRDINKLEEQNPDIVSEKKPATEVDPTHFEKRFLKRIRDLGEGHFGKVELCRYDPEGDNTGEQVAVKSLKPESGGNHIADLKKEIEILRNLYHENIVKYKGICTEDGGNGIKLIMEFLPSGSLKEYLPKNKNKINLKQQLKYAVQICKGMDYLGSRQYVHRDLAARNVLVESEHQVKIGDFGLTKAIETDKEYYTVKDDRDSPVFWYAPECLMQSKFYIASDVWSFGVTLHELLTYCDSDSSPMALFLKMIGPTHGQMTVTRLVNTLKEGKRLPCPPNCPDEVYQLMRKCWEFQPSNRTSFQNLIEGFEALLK

[13] = biological target: Dual specificity protein kinase CLK1 (Homo sapiens, UniProt P49759); assay: Inhibition of human wild type CLK1 using autophos as substrate preincubated for 2 hrs followed by ATP addition and measured every 2 mins for […] by spectrophotometric analysis
[14] = biological target: cAMP-dependent protein kinase catalytic subunit PRKX (Homo sapiens, UniProt P51817); assay: Inhibition of human wild type PRKX using RBER-GSK3([…] to […]) as substrate preincubated for 2 hrs followed by ATP addition and measured every 2 mins for […] by spectrophotometric analysis
[15] = biological target: Mitogen-activated protein kinase 13 (Homo sapiens, UniProt O15264); assay: Inhibition of human wild type p38 delta using RBER-CHKtide as substrate preincubated for 2 hrs followed by ATP addition and measured every 2 mins for […] by spectrophotometric analysis
[16] = biological target: Phosphorylase b kinase gamma catalytic chain, skeletal muscle/heart isoform (Homo sapiens, UniProt Q16816); assay: Inhibition of human wild type PHKgamma1 using 3xChocktide-PKC([…]-[…]) as substrate preincubated for 2 hrs followed by ATP addition and measured every 2 mins for […] by spectrophotometric analysis
[17] = biological target: Mitogen-activated protein kinase kinase kinase 8 (Homo sapiens, UniProt P41279); assay: Inhibition of human wild type COT1 using RBER-CHKtide as substrate preincubated for 2 hrs followed by ATP addition and measured every 2 mins for […] by spectrophotometric analysis
[18] = biological target: Rho-associated protein kinase 1 (Homo sapiens, UniProt Q13464); assay: Inhibition of human wild type ROCK1 using 3xChocktide-PKC([…] to […]) as substrate preincubated for 2 hrs followed by ATP addition and measured every 2 mins for […] by spectrophotometric analysis
[19] = biological target: Signal transducer and activator of transcription 5A (Homo sapiens) (UniProt P42229); assay: Inhibition of STAT5 phosphorylation in Ph+ B-ALL patient with […] mutation derived human Leukemia cell at 50 to 1000 nM by immunoblot analysis; type: cell-based; conditions: dose 50-1000 nM
[20] = biological target: Receptor tyrosine-protein kinase erbB-2 (Homo sapiens, UniProt P04626); assay: Inhibition of human wild type HER2 using PolyEY as substrate preincubated for 2 hrs followed by ATP addition and measured every 2 mins for […] by spectrophotometric analysis
[21] = biological target: Protein kinase C delta type (Homo sapiens, UniProt Q05655); assay: Inhibition of human wild type PKC delta using 3xChocktide-PKC(19to 31) as substrate preincubated for 2 hrs followed by ATP addition and measured every 2 mins for […] by spectrophotometric analysis
[22] = biological target: Mitogen-activated protein kinase kinase kinase 20 (Homo sapiens, UniProt Q9NYL2); assay: Inhibition of human wild type ZAK using MBP as substrate preincubated for 2 hrs followed by ATP addition and measured every 2 mins for […] by spectrophotometric analysis
[23] = test system: BaF3; assay: Antitumor activity against mouse BaF3 cells harbouring BCR-ABL1 T315I mutant xenografted in Balb/c mouse model assessed as reduction in leukemia cell burden in spleen at 100 mg/kg, po administered twice daily; type: functional, organism-based
[24] = biological target: Tyrosine-protein kinase Fes/Fps (Homo sapiens, UniProt P07332); assay: Inhibition of human wild type FES using PolyEY as substrate preincubated for 2 hrs followed by ATP addition and measured every 2 mins for […] by spectrophotometric analysis
[25] = biological target: Serine/threonine-protein kinase ULK2 (Homo sapiens, UniProt Q8IYT8); assay: Inhibition of human wild type ULK2 using Casein as substrate preincubated for 2 hrs followed by ATP addition and measured every 2 mins for […] by spectrophotometric analysis
[26] = biological target: Mitogen-activated protein kinase kinase kinase 14 (Homo sapiens, UniProt Q99558); assay: Inhibition of human wild type NIK using RBER-CHKtide as substrate preincubated for 2 hrs followed by ATP addition and measured every 2 mins for […] by spectrophotometric analysis
[27] = biological target: Activated CDC42 kinase 1 (Homo sapiens, UniProt Q07912); assay: Inhibition of human wild type ACK1 using PolyEY as substrate preincubated for 2 hrs followed by ATP addition and measured every 2 mins for […] by spectrophotometric analysis
Sequence of Activated CDC42 kinase 1 (Q07912 whole entry): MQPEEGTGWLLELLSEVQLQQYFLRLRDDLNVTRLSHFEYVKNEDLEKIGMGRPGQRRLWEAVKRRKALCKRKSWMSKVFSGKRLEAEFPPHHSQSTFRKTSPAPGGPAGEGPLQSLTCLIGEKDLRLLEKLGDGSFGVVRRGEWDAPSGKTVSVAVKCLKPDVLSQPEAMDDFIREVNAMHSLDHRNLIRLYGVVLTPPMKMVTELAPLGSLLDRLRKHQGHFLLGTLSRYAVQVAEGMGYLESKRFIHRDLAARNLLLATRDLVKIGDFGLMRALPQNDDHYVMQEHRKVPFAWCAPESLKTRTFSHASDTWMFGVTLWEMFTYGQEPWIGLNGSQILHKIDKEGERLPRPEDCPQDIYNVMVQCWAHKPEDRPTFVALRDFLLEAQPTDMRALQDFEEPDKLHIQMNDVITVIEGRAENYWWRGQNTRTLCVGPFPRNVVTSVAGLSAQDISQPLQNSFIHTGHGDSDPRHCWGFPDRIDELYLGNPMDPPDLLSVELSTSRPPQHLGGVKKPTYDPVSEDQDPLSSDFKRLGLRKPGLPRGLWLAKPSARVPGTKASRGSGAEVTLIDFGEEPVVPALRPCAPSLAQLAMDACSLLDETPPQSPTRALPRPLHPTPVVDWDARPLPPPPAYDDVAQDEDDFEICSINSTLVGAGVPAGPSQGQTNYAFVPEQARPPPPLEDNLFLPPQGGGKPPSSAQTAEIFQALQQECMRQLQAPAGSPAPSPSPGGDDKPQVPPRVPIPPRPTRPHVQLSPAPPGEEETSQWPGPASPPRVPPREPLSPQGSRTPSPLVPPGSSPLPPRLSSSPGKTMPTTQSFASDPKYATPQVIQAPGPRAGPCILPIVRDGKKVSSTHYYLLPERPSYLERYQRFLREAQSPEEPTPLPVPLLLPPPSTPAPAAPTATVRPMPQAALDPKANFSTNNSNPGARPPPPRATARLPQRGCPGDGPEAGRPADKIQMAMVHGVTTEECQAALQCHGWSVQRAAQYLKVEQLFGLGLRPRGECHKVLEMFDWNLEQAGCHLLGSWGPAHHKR

- pIC50 [1]: 6.60
- pIC50 [2]: < 6.00
- pIC50 [3]: < 6.00
- pIC50 [4]: < 6.00
- pIC50 [5]: < 6.00
- pIC50 [6]: < 6.00
- pIC50 [7]: < 6.00
- pIC50 [8]: 6.49
- Kdiss [9]: 1.67e-05 s⁻¹
- pIC50 [10]: < 6.00
- pIC50 [11]: < 6.00
- pIC50 [12]: 6.07
- pIC50 [13]: < 6.00
- pIC50 [14]: < 6.00
- pIC50 [15]: < 6.00
- pIC50 [16]: < 6.00
- pIC50 [17]: < 6.00
- pIC50 [18]: < 6.00
- inhibition [19]: Active
- pIC50 [20]: < 6.00
- pIC50 [21]: < 6.00
- pIC50 [22]: 7.05
- pIC50 [24]: 6.80
- pIC50 [25]: 6.49
- pIC50 [26]: < 6.00
- pIC50 [27]: < 6.00
SMILES: CNC(=O)c1cc(Oc2ccc(NC(=O)Nc3cc(C(C)(C)C)nn3-c3ccc4ncccc4c3)c(F)c2)ccn1 [REBASTINIB]
- Activity [23]: Active
